Assay results as given in PubChem BioAssay AID248 (DTP/NCI, 2004).
Values joined by “and” are separate entries in the source; they are usually repeats but may differ in a detail not shown here. Identical values can stand only once. Toxic doses and inconclusive results are not listed. Cut-off read from the data, not from the text of the source: active = T/C of 150% or more; inactive = T/C below 125%.

System: L1210 leukemia ip in BDF1 mice, survival T/C
Test: NCI In Vivo Anticancer Drug Screen. Data for tumor model L1210 Leukemia (intraperitoneal) in B6D2F1 (BDF1) mice
Conditions: endpoint: mean survival time, higher = longer survival
Procedure, shortened: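 Tumor cells were implanted, animals were treated, and survival was followed. The result divides the treated measurement by the vehicle-control measurement.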

[1] = dose: 100.0 mg/kg/injection, schedule: Q01DX001 (ip), vehicle: saline with Tween-80
[2] = dose: 200.0 mg/kg/injection, schedule: Q01DX001 (ip), vehicle: saline with Tween-80
[3] = dose: 400.0 mg/kg/injection, schedule: Q01DX001 (ip), vehicle: saline with Tween-80
[4] = dose: 100.0 mg/kg/injection, schedule: Q04DX003 (ip), vehicle: saline with Tween-80
[5] = dose: 200.0 mg/kg/injection, schedule: Q04DX003 (ip), vehicle: saline with Tween-80
[6] = dose: 400.0 mg/kg/injection, schedule: Q04DX003 (ip), vehicle: saline with Tween-80
[7] = dose: 25.0 mg/kg/injection, schedule: Q01DX009 (ip), vehicle: saline with Tween-80
[8] = dose: 50.0 mg/kg/injection, schedule: Q01DX009 (ip), vehicle: saline with Tween-80
[9] = dose: 50.0 mg/kg/injection, schedule: Q04DX003 (ip), vehicle: Klucel (hydroxypropylcellulose) (HPC)
[10] = dose: 100.0 mg/kg/injection, schedule: Q04DX003 (ip), vehicle: Klucel (hydroxypropylcellulose) (HPC)
[11] = dose: 400.0 mg/kg/injection, schedule: Q04DX003 (ip), vehicle: Klucel (hydroxypropylcellulose) (HPC)
[12] = dose: 100.0 mg/kg/injection, schedule: Q01DX009 (ip), vehicle: Klucel (hydroxypropylcellulose) (HPC)
[13] = dose: 200.0 mg/kg/injection, schedule: Q01DX009 (ip), vehicle: Klucel (hydroxypropylcellulose) (HPC)
[14] = dose: 400.0 mg/kg/injection, schedule: Q01DX009 (ip), vehicle: Klucel (hydroxypropylcellulose) (HPC)
[15] = dose: 50.0 mg/kg/injection, schedule: Q04DX003 (ip), vehicle: saline with Tween-80
[16] = dose: 25.0 mg/kg/injection, schedule: Q01DX015 (ip), vehicle: carboxymethylcellulose (CMC)
[17] = dose: 50.0 mg/kg/injection, schedule: Q01DX015 (ip), vehicle: carboxymethylcellulose (CMC)
[18] = dose: 100.0 mg/kg/injection, schedule: Q01DX001 (ip), vehicle: carboxymethylcellulose (CMC)
[19] = dose: 200.0 mg/kg/injection, schedule: Q01DX001 (ip), vehicle: carboxymethylcellulose (CMC)
[20] = dose: 200.0 mg/kg/injection, schedule: Q04DX003 (ip), vehicle: Klucel (hydroxypropylcellulose) (HPC)
[21] = dose: 400.0 mg/kg/injection, schedule: Q01DX001 (ip), vehicle: carboxymethylcellulose (CMC)

Measured: T/C

CC1(C)C2CCC(O)C1C2 (stereo not given)
inactive: [1] 104 % of control | [2] 97 % of control | [3] 90 % of control

Nc1ccc2c(c1)oc1ccccc12
inactive: dose: 100.0 mg/kg/injection, schedule: Q04DX002 (ip), vehicle: Klucel (hydroxypropylcellulose) (HPC) 107 % of control | dose: 200.0 mg/kg/injection, schedule: Q04DX002 (ip), vehicle: Klucel (hydroxypropylcellulose) (HPC) 103 % of control | dose: 400.0 mg/kg/injection, schedule: Q04DX002 (ip), vehicle: Klucel (hydroxypropylcellulose) (HPC) 110 % of control

CC(C)CCCC(C)C1CCC2C3CC=C4CC(C(=O)NN)CCC4(C)C3CCC12C (stereo not given)
inactive: [4] 96 % of control | [5] 96 % of control | [6] 98 % of control

CC(=O)OC1CC2CC(C1C)C2(C)C (stereo not given)
inactive: dose: 12.5 mg/kg/injection, schedule: Q01DX009 (ip), vehicle: saline with Tween-80 105 % of control | [7] 91 % of control | [8] 100 % of control

Cl/C(=C\c1ccccc1)c1ccccc1
inactive: dose: 25.0 mg/kg/injection, schedule: Q04DX003 (ip), vehicle: Klucel (hydroxypropylcellulose) (HPC) 96 % of control | [9] 95 % of control | [10] 96 % of control | [11] 101 % of control

CNC(=O)C(c1ccccc1)C(F)(F)F (stereo not given)
inactive: [1] 97 % of control | [2] 109 % of control | [3] 105 % of control

CC(C)c1cc[n+](/C(C(=S)Nc2cccc(Cl)c2)=C(/[O-])c2ccc([N+](=O)[O-])cc2)cc1
inactive: [12] 105 % of control | [13] 91 % of control | [14] 94 % of control

CC(NC(=O)NCCCl)c1ccccc1 (stereo not given)
inactive: dose: 25.0 mg/kg/injection, schedule: Q04DX003 (ip), vehicle: saline with Tween-80 100 % of control | [15] 90 % of control | [4] 100 % of control and 90 % of control and 94 % of control | [5] 102 % of control

CC(C)(C(O)c1ccccc1)[N+](=O)[O-] (stereo not given)
inactive: [4] 101 % of control | [5] 97 % of control | [6] 101 % of control

CC(=O)Nc1ccc2c(c1)C[N+](C)(C1CCCCC1)CO2 (stereo not given)
inactive: [7] 101 % of control | [16] 103 % of control | [8] 95 % of control | [17] 98 % of control | [15] 97 % of control | [18] 92 % of control | dose: 100.0 mg/kg/injection, schedule: Q01DX009 (ip), vehicle: saline with Tween-80 95 % of control | [4] 100 % of control | [19] 94 % of control

CCCCCCCCCCCCCCCCCC[N+](C)(C)c1nc(Cl)nc(Cl)n1
inactive: dose: 13.0 mg/kg/injection, schedule: Q01DX015 (ip), vehicle: carboxymethylcellulose (CMC) 98 % of control | [16] 92 % of control | dose: 37.5 mg/kg/injection, schedule: Q04DX003 (ip), vehicle: Klucel (hydroxypropylcellulose) (HPC) 103 % of control | [17] 93 % of control | dose: 75.0 mg/kg/injection, schedule: Q04DX003 (ip), vehicle: Klucel (hydroxypropylcellulose) (HPC) 97 % of control | [18] 92 % of control | dose: 100.0 mg/kg/injection, schedule: Q01DX015 (ip), vehicle: carboxymethylcellulose (CMC) 93 % of control | [19] 97 % of control

COC(=O)c1cc(-c2ccccc2)[nH]c1-c1ccc2ccccc2n1
inactive: dose: 100.0 mg/kg/injection, schedule: Q01DX001 (ip), vehicle: steriod suspending solution 100 % of control | dose: 200.0 mg/kg/injection, schedule: Q01DX001 (ip), vehicle: steriod suspending solution 100 % of control | dose: 400.0 mg/kg/injection, schedule: Q01DX001 (ip), vehicle: steriod suspending solution 94 % of control

COc1cccc(C(Cc2ccccc2)NCc2ccccc2)c1 (stereo not given)
inactive: [12] 91 % of control | [13] 91 % of control | [14] 96 % of control

O=c1oc2ccc(Cl)cc2c(OCCO)c1Cl
inactive: [4] 94 % of control | [5] 96 % of control | [6] 86 % of control

CC/C(=N/Nc1ccc([N+](=O)[O-])cc1[N+](=O)[O-])c1ccccc1
inactive: dose: 100.0 mg/kg/injection, schedule: Q01DX001 (ip), vehicle: other 96 % of control | dose: 200.0 mg/kg/injection, schedule: Q01DX001 (ip), vehicle: other 111 % of control | dose: 400.0 mg/kg/injection, schedule: Q01DX001 (ip), vehicle: other 91 % of control

CCC(C(=O)O)N1C(=O)c2ccccc2C1=O (stereo not given)
inactive: dose: 100.0 mg/kg/injection, schedule: Q01DX001 (ip), vehicle: saline 102 % of control | dose: 200.0 mg/kg/injection, schedule: Q01DX001 (ip), vehicle: saline 97 % of control | dose: 400.0 mg/kg/injection, schedule: Q01DX001 (ip), vehicle: saline 103 % of control

COc1cc(OC)c(OC)cc1/C=C\c1ccnc2ccccc12
inactive: [18] 105 % of control | [12] 98 % of control | [19] 100 % of control | [13] 108 % of control | [20] 108 % of control | [21] 109 % of control | [14] 114 % of control | [11] 108 % of control | dose: 800.0 mg/kg/injection, schedule: Q01DX009 (ip), vehicle: Klucel (hydroxypropylcellulose) (HPC) 112 % of control | dose: 800.0 mg/kg/injection, schedule: Q04DX003 (ip), vehicle: Klucel (hydroxypropylcellulose) (HPC) 110 % of control | dose: 1600.0 mg/kg/injection, schedule: Q04DX003 (ip), vehicle: Klucel (hydroxypropylcellulose) (HPC) 108 % of control

O=C1OCc2cc[n+]([O-])cc21
inactive: [18] 97 % of control | [19] 96 % of control | [21] 107 % of control

COc1ccc(C=Nc2ccccc2)cc1
inactive: [4] 103 % of control | [5] 97 % of control | [6] 97 % of control

N#C/C(=C\c1cccs1)c1ccccc1
inactive: [9] 110 % of control | [10] 98 % of control | [20] 104 % of control

CCN(C(=S)c1ccc(Cl)cc1)c1cccc(C)c1
inactive: dose: 100.0 mg/kg/injection, schedule: Q01DX001 (ip), vehicle: Klucel (hydroxypropylcellulose) (HPC) 103 % of control | [10] 94 % of control | dose: 200.0 mg/kg/injection, schedule: Q01DX001 (ip), vehicle: Klucel (hydroxypropylcellulose) (HPC) 99 % of control | [20] 103 % of control | dose: 400.0 mg/kg/injection, schedule: Q01DX001 (ip), vehicle: Klucel (hydroxypropylcellulose) (HPC) 94 % of control | [11] 100 % of control

CN(C)C=NC(c1ccccc1)c1ccc(Cl)cc1 (stereo not given)
inactive: dose: 75.0 mg/kg/injection, schedule: Q01DX009 (ip), vehicle: saline with Tween-80 95 % of control | dose: 150.0 mg/kg/injection, schedule: Q01DX009 (ip), vehicle: saline with Tween-80 95 % of control | dose: 300.0 mg/kg/injection, schedule: Q01DX009 (ip), vehicle: saline with Tween-80 100 % of control
